Measurements: ChEMBL document CHEMBL4325863, “Investigating alkyl nitrates as nitric oxide releasing precursors of multitarget acetylcholinesterase-monoamine oxidase B inhibitors” (Eur J Med Chem, 2019)

Assays:
Cholinesterase [1] = biological target: Cholinesterase (Equus caballus, UniProt P81908); experiment: Inhibition of equine serum BuChE using butyrylthiocholine iodide as substrate by Ellman's method
[2] = biological target: T1, Amine oxidase [flavin-containing] B (Homo sapiens, UniProt P27338); experiment: Inhibition of recombinant human MAO-B expressed in baculovirus infected insect cell microsomes using kynuramine as substrate measured after 30 mins by spectrophotometric assay
T1 sequence (P27338 whole entry): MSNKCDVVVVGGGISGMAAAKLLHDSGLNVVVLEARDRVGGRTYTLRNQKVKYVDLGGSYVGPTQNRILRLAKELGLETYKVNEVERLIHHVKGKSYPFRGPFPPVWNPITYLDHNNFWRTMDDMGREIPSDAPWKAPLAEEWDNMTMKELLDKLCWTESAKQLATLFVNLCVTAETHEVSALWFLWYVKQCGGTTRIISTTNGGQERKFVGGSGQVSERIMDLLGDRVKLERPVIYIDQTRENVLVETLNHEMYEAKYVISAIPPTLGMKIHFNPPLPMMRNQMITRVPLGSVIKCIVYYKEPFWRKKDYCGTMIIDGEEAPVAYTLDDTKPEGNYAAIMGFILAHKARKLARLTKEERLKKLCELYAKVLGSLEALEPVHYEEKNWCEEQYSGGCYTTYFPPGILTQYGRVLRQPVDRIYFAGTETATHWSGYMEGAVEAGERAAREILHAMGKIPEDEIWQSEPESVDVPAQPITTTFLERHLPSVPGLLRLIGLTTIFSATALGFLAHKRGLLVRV

[3] = biological target: T2, Amine oxidase [flavin-containing] A (Homo sapiens, UniProt P21397); experiment: Inhibition of recombinant human MAO-A expressed in baculovirus infected insect cell microsomes at 10 uM using kynuramine as substrate measured after 30 mins by fluorescence based assay relative to control; details: 0.5 h
T2 sequence (P21397 whole entry): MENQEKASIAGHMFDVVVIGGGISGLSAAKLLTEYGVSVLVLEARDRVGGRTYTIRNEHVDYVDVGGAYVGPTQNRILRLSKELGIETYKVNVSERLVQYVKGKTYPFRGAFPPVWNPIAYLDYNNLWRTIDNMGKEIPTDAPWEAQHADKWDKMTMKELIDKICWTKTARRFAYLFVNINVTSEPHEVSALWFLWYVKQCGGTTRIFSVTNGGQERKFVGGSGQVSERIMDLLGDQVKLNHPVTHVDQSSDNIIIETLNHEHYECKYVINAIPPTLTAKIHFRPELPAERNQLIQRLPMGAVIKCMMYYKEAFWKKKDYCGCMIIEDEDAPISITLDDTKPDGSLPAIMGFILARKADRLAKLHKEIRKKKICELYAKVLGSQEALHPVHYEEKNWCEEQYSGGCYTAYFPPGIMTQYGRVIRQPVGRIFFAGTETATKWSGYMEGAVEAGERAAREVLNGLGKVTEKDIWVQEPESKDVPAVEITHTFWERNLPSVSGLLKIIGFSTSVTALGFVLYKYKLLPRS

Acetylcholinesterase [4] = biological target: Acetylcholinesterase (Electrophorus electricus, UniProt O42275); experiment: Inhibition of electric eel AChE using acetylthiocholine iodide as substrate by Ellman's method
Chain of Acetylcholinesterase (Electrophorus electricus, UniProt O42275) (O42275 whole entry): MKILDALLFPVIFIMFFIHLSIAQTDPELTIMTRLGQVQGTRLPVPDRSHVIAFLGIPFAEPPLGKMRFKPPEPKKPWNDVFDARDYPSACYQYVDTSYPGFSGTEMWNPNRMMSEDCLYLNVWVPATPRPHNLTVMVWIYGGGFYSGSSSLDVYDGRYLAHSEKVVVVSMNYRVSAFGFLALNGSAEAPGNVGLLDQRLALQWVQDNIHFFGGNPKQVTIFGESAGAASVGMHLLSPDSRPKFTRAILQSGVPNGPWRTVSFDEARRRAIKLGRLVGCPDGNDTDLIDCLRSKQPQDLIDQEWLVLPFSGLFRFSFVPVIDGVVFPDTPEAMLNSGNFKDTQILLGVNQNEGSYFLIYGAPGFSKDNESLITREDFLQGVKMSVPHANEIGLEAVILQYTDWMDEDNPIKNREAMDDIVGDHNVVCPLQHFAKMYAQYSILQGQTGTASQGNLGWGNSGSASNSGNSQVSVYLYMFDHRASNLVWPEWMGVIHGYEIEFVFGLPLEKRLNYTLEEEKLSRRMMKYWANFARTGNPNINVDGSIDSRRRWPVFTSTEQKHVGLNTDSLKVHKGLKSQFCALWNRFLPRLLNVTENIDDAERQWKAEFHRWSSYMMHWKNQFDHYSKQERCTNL

[5] = biological target: T1, Amine oxidase [flavin-containing] B; experiment: Inhibition of recombinant human MAO-B expressed in baculovirus infected insect cell microsomes using kynuramine as substrate measured after 30 mins by fluorescence based assay
[6] = biological target: T2, Amine oxidase [flavin-containing] A; experiment: Inhibition of recombinant human MAO-A expressed in baculovirus infected insect cell microsomes using kynuramine as substrate measured after 30 mins by fluorescence based assay
SH-SY5Y [7] = experiment: Cytotoxicity against human SH-SY5Y cells assessed as reduction in cell viability after 24 hrs by MTT assay; assay type: cell-based
Cholinesterase [8] = biological target: T3, Cholinesterase (Homo sapiens, UniProt P06276); experiment: Inhibition of human serum BuChE at 10 uM using butyrylthiocholine iodide as substrate by Ellman's method relative to control
T3 sequence (P06276 whole entry): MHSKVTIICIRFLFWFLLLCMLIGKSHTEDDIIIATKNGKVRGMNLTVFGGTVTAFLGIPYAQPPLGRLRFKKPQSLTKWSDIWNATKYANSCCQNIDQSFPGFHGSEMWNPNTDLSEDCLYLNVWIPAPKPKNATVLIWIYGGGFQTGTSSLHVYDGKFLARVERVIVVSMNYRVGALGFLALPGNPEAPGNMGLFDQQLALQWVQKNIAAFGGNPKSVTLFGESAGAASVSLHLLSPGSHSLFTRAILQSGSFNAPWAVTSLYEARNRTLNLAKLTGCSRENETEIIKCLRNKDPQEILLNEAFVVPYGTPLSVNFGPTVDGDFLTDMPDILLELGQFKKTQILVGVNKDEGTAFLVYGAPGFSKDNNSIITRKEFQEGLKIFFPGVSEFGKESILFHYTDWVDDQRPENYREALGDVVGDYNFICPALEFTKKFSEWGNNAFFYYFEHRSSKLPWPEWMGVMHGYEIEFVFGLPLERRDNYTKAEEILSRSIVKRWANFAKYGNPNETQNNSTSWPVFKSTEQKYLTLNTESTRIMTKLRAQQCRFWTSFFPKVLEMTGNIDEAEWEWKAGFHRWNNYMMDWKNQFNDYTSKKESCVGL

Acetylcholinesterase [9] = biological target: Acetylcholinesterase (Homo sapiens, UniProt P22303); experiment: Inhibition of human recombinant AChE using acetylthiocholine iodide as substrate by Ellman's method
Chain of Acetylcholinesterase (Homo sapiens, UniProt P22303) (P22303 whole entry): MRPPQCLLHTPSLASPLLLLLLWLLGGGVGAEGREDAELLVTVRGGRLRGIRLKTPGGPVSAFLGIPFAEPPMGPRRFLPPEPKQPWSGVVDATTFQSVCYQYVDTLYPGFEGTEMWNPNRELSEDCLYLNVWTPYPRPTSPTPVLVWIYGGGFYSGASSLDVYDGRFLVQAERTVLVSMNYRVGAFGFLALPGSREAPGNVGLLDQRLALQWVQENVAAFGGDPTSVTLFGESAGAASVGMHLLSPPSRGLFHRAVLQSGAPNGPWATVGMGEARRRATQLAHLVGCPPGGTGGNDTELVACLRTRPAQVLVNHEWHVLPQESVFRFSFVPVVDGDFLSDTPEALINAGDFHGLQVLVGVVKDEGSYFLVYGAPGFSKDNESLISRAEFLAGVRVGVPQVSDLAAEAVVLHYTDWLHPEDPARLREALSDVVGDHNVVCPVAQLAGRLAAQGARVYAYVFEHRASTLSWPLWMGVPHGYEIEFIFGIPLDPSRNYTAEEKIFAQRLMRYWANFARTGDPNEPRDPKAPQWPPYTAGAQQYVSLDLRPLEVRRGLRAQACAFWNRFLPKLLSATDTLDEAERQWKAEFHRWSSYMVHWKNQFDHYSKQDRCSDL

SH-SY5Y [10] = experiment: Neuroprotection against rotenone/H2O2-induced cell death in human SH-SY5Y cells assessed as increase in cell viability preincubated for 24 hrs followed by rotenone/H2O2 addition measured after 24 hrs by MTT assay; assay type: functional, cell-based
[11] = Apparent permeability from basolateral to apical side in MDCK2-MDR1 cells by UV-Visible spectrophotometric method; assay type: ADME, cell-based, Canis lupus familiaris; details: dog, MDCK-MDR1
[12] = Efflux ratio of apparent permeability in MDCK2-MDR1 cells by UV-Visible spectrophotometric method; assay type: ADME, cell-based, Canis lupus familiaris; details: dog, MDCK-MDR1
[13] = biological target: Cholinesterase (Equus caballus) (UniProt P81908); experiment: Inhibition of equine serum BuChE at 10 uM using butyrylthiocholine iodide as substrate by Ellman's method relative to control
Chain of Cholinesterase (Equus caballus) (P81908 whole entry): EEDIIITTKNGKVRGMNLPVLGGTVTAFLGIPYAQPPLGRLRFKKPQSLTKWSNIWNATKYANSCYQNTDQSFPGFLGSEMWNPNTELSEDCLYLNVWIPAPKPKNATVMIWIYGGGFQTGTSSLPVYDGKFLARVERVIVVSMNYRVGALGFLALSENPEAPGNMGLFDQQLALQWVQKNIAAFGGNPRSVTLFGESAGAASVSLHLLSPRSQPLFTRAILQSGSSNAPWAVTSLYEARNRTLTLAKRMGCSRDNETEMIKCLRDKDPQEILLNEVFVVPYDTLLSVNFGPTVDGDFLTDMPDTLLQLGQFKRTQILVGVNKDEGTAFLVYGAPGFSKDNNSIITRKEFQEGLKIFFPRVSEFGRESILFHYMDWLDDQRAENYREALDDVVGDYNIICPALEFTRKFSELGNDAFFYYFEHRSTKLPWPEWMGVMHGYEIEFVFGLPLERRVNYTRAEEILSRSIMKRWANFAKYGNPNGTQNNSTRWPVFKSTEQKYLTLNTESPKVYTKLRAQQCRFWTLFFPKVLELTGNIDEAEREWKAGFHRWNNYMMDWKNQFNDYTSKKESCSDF

[14] = Apparent permeability from apical to basolateral side in MDCK2-MDR1 cells by UV-Visible spectrophotometric method; assay type: ADME, cell-based, Canis lupus familiaris; details: dog, MDCK-MDR1
[15] = biological target: T1, Amine oxidase [flavin-containing] B; experiment: Inhibition of recombinant human MAO-B expressed in baculovirus infected insect cell microsomes at 10 uM using kynuramine as substrate measured after 30 mins by fluorescence based assay relative to control; details: 0.5 h
Homo sapiens = species on record: Homo sapiens; experiment: Selectivity index, ratio of IC50 for recombinant human MAO-A to IC50 for recombinant human MAO-B
[16] = Selectivity index, ratio of IC50 for equine serum BuChE to IC50 for electric eel AChE
Cholinesterase [17] = biological target: T3, Cholinesterase; experiment: Inhibition of human serum BuChE using butyrylthiocholine iodide as substrate by Ellman's method

Chain of Cholinesterase (Equus caballus, UniProt P81908) (P81908 whole entry): as above

Row | SMILES | IC50 (Cholinesterase [1]) [nM] | inhibition at 10 µM [3] [%] | IC50 (Acetylcholinesterase [4]) [nM] | IC50 [5] [nM] | IC50 [6] [nM] | inhibition [13] [%] | also measured
1 | CN(C)Cc1cc(=O)oc2cc(OCc3ccc(CO)cc3)ccc12 | 11000 | 23 | 1300 | 630 | – | – | IC50 [2]: 770 nM
2 | Cc1cc2ccc(OCC3CCN(Cc4cccc(CO)c4)CC3)cc2oc1=O | 910 | – | 3200 | 1100 | 3900 | – | –
3 | Cc1c(C)c2ccc(OCC3CCN(CCCCO)CC3)cc2oc1=O | 8300 | 30 | 500 | 3600 | – | – | –
4 | Cc1c(C)c2ccc(OCC3CCN(CCCO)CC3)cc2oc1=O | – | 44 | 1300 | 480 | – | 30 | Activity (SH-SY5Y [7]): > 100 µM; inhibition (Cholinesterase [8]): < 5%; IC50 (Acetylcholinesterase [9]): 890 nM; Activity (SH-SY5Y [10]): Dose-dependent effect; Papp B→A [11]: 14.9 ×10⁻⁶ cm/s; efflux ratio [12]: 1.5; Papp A→B [14]: 9.92 ×10⁻⁶ cm/s
5 | Cc1c(C)c2ccc(OCCC3CCN(CCCO)CC3)cc2oc1=O | – | 35 | 720 | – | – | 39 | inhibition at 10 µM [15]: 31%
6 | Cc1cc(=O)oc2cc(OCC3CCN(Cc4cccc(CO)c4)CC3)ccc12 | 1900 | – | 1600 | 480 | 3500 | – | –
7 | CN(C)Cc1ccc(COc2ccc3c(CO)cc(=O)oc3c2)cc1 | – | 20 | 4500 | 78 | – | 43 | IC50 [2]: 74 nM
8 | Cc1c(C)c2ccc(OCC3CCCN(CCCO)C3)cc2oc1=O (stereo unspecified) | – | 41 | 1800 | 1500 | – | 26 | –
9 | O=c1ccc2ccc(OCC3CCCN(CCCO)C3)cc2o1 (stereo unspecified) | 1700 | 14 | 3500 | – | – | – | inhibition at 10 µM [15]: 42%
10 | Cc1c(C)c2ccc(OCC3CCN(Cc4ccc(CCO)cc4)CC3)cc2oc1=O | – | – | 1200 | 120 | 1700 | 41 | –
11 | Cc1cc(=O)oc2cc(OCC3CCN(Cc4ccc(CO)cc4)CC3)ccc12 | – | – | 1600 | 600 | 11000 | 45 | –
12 | Cc1c(C)c2ccc(OCC3CCN(Cc4cccc(CO)c4)CC3)cc2oc1=O | 1300 | – | 1000 | 76 | 1900 | – | Activity (SH-SY5Y [7]): 43 µM; IC50 (Acetylcholinesterase [9]): 1400 nM; Activity (SH-SY5Y [10]): Dose-dependent effect; Papp B→A [11]: 21.5 ×10⁻⁶ cm/s; efflux ratio [12]: 1.09; Papp A→B [14]: 19.8 ×10⁻⁶ cm/s
13 | Cc1c(C)c2ccc(OCC3CCCN(Cc4ccc(CO)cc4)C3)cc2oc1=O (stereo unspecified) | 8600 | – | 1200 | 76 | 1100 | – | –
14 | Cc1cc2ccc(OCC3CCN(Cc4ccc(CO)cc4)CC3)cc2oc1=O | 8100 | 43 | 3000 | 3100 | – | – | –
15 | CN(C)Cc1cccc(COc2ccc3c(CO)cc(=O)oc3c2)c1 | – | 42 | 5900 | 54 | – | 36 | –
16 | Cc1c(C)c2ccc(OCC3CCN(Cc4ccc(CO)cc4)CC3)cc2oc1=O | 8800 | – | 1000 | 29 | 1400 | – | Ratio IC50 (Homo sapiens): 48; IC50 [2]: 39 nM
17 | CN(C)Cc1cc(=O)oc2cc(OCc3cccc(CO)c3)ccc12 | – | 21 | 4400 | 1100 | – | 35 | –
18 | Cc1c(C)c2ccc(OCc3cccc(CN4CCC(CO)CC4)c3)cc2oc1=O | 1000 | 23 | 2900 | 320 | – | – | –
19 | Cc1c(C)c2ccc(OCC3CCCN(Cc4cccc(CO)c4)C3)cc2oc1=O (stereo unspecified) | 2700 | – | 900 | 110 | 2200 | – | –
20 | Cc1c(C)c2ccc(OCC3CCN(Cc4cccc(OCCCO)c4)CC3)cc2oc1=O | 180 | – | 1800 | 780 | 550 | – | Ratio IC50 (Homo sapiens): 0.7; Ratio IC50 [16]: 0.1; IC50 (Acetylcholinesterase [9]): 840 nM; IC50 (Cholinesterase [17]): 740 nM
